Here are results for two compounds from PubChem BioAssay AID1259407 (Chemical Carcinogenesis Research Information System (CCRIS), 2018).

Calls of active or inactive are those of the source. No rule for the calls is given here.

The data set relates to CCRIS mutagenicity, Ames/micronucleus/aberration tests. The data set can be described thus: CCRIS mutagenicity studies. The conditions noted are these: Test System: AMES SALMONELLA TYPHIMURIUM

`O=[N+]([O-])c1ccc2c(c1)-c1ccc([N+](=O)[O-])c3cccc-2c13`: the mutagenic call was “active; positive” (Strain/Indicator: TA97, Metabolic Activation: NONE); “active; positive” (Strain/Indicator: TA98(1,8-DNP6), Metabolic Activation: NONE); “active; positive” (Strain/Indicator: TA98(NR), Metabolic Activation: NONE); “active; positive” (Strain/Indicator: TA98, Metabolic Activation: NONE); “active; positive” (Strain/Indicator: TA100, Metabolic Activation: NONE); “inactive; negative” (Strain/Indicator: TA1535, Metabolic Activation: NONE). Besides, the mutagenic call by setting is: (Strain/Indicator: TA1537, Metabolic Activation: NONE) “active; positive”; (Strain/Indicator: TA1538, Metabolic Activation: NONE) “active; positive”; (Strain/Indicator: TA1978, Metabolic Activation: NONE) “active; positive”.
Consider `CCCCC(C=O)CC` (centres undefined), for which the mutagenic call reads like this: (Strain/Indicator: TA97, Metabolic Activation: HAMSTER, LIVER, S-9, AROCLOR 1254 (10%), Method: PREINCUBATION) “inactive; negative”; (Strain/Indicator: TA97, Metabolic Activation: HAMSTER, LIVER, S-9, AROCLOR 1254 (30%), Method: PREINCUBATION) “inactive; negative”; (Strain/Indicator: TA97, Metabolic Activation: NONE, Method: PREINCUBATION) “inactive; negative”; (Strain/Indicator: TA97, Metabolic Activation: RAT, LIVER, S-9, AROCLOR 1254 (10%), Method: PREINCUBATION) “inactive; negative”; (Strain/Indicator: TA97, Metabolic Activation: RAT, LIVER, S-9, AROCLOR 1254 (30%), Method: PREINCUBATION) “inactive; negative”; (Strain/Indicator: TA98, Metabolic Activation: HAMSTER, LIVER, S-9, AROCLOR 1254 (10%), Method: PREINCUBATION) “inactive; negative”. In addition, the mutagenic call is, setting by setting: (Strain/Indicator: TA98, Metabolic Activation: HAMSTER, LIVER, S-9, AROCLOR 1254 (30%), Method: PREINCUBATION) “inactive; negative”; (Strain/Indicator: TA98, Metabolic Activation: NONE, Method: PREINCUBATION) “inactive; negative”; (Strain/Indicator: TA98, Metabolic Activation: RAT, LIVER, S-9, AROCLOR 1254 (10%), Method: PREINCUBATION) “inactive; negative”; (Strain/Indicator: TA98, Metabolic Activation: RAT, LIVER, S-9, AROCLOR 1254 (30%), Method: PREINCUBATION) “inactive; negative”; (Strain/Indicator: TA100, Metabolic Activation: HAMSTER, LIVER, S-9, AROCLOR 1254 (10%), Method: PREINCUBATION) “inactive; negative”; (Strain/Indicator: TA100, Metabolic Activation: HAMSTER, LIVER, S-9, AROCLOR 1254 (30%), Method: PREINCUBATION) “inactive; negative”. For the same compound, the mutagenic call (Strain/Indicator: TA100, Metabolic Activation: NONE, Method: PREINCUBATION) was “inactive; negative”; the mutagenic call (Strain/Indicator: TA100, Metabolic Activation: RAT, LIVER, S-9, AROCLOR 1254 (10%), Method: PREINCUBATION) was “inactive; negative”; the mutagenic call (Strain/Indicator: TA100, Metabolic Activation: RAT, LIVER, S-9, AROCLOR 1254 (30%), Method: PREINCUBATION) was “inactive; negative”; the mutagenic call (Strain/Indicator: TA1535, Metabolic Activation: HAMSTER, LIVER, S-9, AROCLOR 1254 (10%), Method: PREINCUBATION) was “inactive; negative”; the mutagenic call (Strain/Indicator: TA1535, Metabolic Activation: HAMSTER, LIVER, S-9, AROCLOR 1254 (30%), Method: PREINCUBATION) was “inactive; negative”; the mutagenic call (Strain/Indicator: TA1535, Metabolic Activation: NONE, Method: PREINCUBATION) is “inactive; negative”. The mutagenic call is, setting by setting: (Strain/Indicator: TA1535, Metabolic Activation: RAT, LIVER, S-9, AROCLOR 1254 (10%), Method: PREINCUBATION) “inactive; negative”; (Strain/Indicator: TA1535, Metabolic Activation: RAT, LIVER, S-9, AROCLOR 1254 (30%), Method: PREINCUBATION) “inactive; negative”.
